This note sets out measurements from US20250034139A1, “AMINE COMPOUNDS HAVING ANTI-INFLAMMATORY, ANTIFUNGAL, ANTIPARASITIC, AND ANTICANCER ACTIVITY” (PHARMA CINQ, LLC, priority 2013, published 2025).

Converted amounts (≈) assume the structure as drawn. Where a name gives a salt, the structure may show the parent alone.

For the first assay, the system named is Candida albicans strain 3153. In words: Example H: Candida albicans growth inhibition (OD 600 nm). It is filed as cell-based. The conditions noted are these: Candida albicans, 3153, 24 hrs at 30° C., YPD, XLfit, read-out: MIC (uM) (99% of inhibition of fungal growth). The procedure, abridged: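 Growth inhibition computed as % versus DMSO control from OD600 after ~24 h at 30° C. Inoculum: washed overnight YPD culture of strain 3153 at 3.5×10^4 CFU/ml in YPD; final compound concentrations 0, 5, 10, 16, 22, 30, 40 μM, duplicate wells.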
As to `CCCCCCOCCCCCCCCNc1ccnc2cc(Cl)ccc12` [AW, 7-Chloro-N-[8-(hexyloxy)octyl]quinolin-4-amine], the MIC came out at 24.8 µM (≈ 9.7 µg/mL).
Same read-out and setting: the result for `CCCCCCOc1cccc(OCCCNc2ccnc3ccccc23)c1` [AZ, N-{3-[3-(Hexyloxy)phenoxy]propyl}quinolin-4-amine] reads 21.1 µM (≈ 7.99 µg/mL); that for `Cc1ccc(OCCCCCCCCNc2ccnc3ccccc23)cc1` [BF, N-[8-(p-Tolyloxy)octyl]quinolin-4-amine], 26.9 µM (≈ 9.77 µg/mL); that for `c1ccc(Oc2cccc(CNc3ncnc4ccccc34)c2)cc1` [BM, N-(3-Phenoxybenzyl)quinazolin-4-amine], 44.5 µM (≈ 14.6 µg/mL).
On the same count and under the same terms, the result for `CCCCCCOCCCCCCCC[n+]1ccc(N)cc1` [BO, 4-Amino-1-[8-(hexyloxy)octyl]pyridinium salts] reads 42.5 µM; that for `CCCCCCCCCCNc1ncnc2ccccc12` [Compound AH, N-(Decyl)quinazolin-4-amine], 15.4 µM (≈ 4.4 µg/mL).

The assay is the same for the next values; noted with them: Candida albicans, 3153, read-out: IC50 (uM) (50% inhibition of fungal growth), 24 hrs at 30° C., YPD, XLfit.
On to `COc1ccc(OCCCCCCCCNc2ncnc3ccccc23)cc1` [AE, N-[8-(4-Methoxyphenoxy)octyl]quinazolin-4-amine], for which the IC50 was 7.82 µM.
Still for that read-out and setting: the result for `CCCCCCOc1cccc(CNc2ncnc3ccccc23)c1` [AK, N-[3-(Hexyloxy)benzyl]quinazolin-4-amine] reads 10.7 µM; that for `CCCCCCOCCCCCCCCNc1ccnc2cc(Cl)ccc12` [AW, 7-Chloro-N-[8-(hexyloxy)octyl]quinolin-4-amine], 13.3 µM; that for `CCCCCCOc1cccc(OCCCNc2ccnc3ccccc23)c1` [AZ, N-{3-[3-(Hexyloxy)phenoxy]propyl}quinolin-4-amine], 10.4 µM.
Same read-out and setting: the result for `Cc1ccc(OCCCCCCCCNc2ccnc3ccccc23)cc1` [BF, N-[8-(p-Tolyloxy)octyl]quinolin-4-amine] reads 14.2 µM.
Turning to `c1ccc(Oc2cccc(CNc3ncnc4ccccc34)c2)cc1` [BM, N-(3-Phenoxybenzyl)quinazolin-4-amine], the IC50 is 20.2 µM.
The same measure, in the same setting: the result for `CCCCCCOCCCCCCCC[n+]1ccc(N)cc1` [BO, 4-Amino-1-[8-(hexyloxy)octyl]pyridinium salts] reads 19 µM; that for `CCCCCCCCCCNc1ncnc2ccccc12` [Compound AH, N-(Decyl)quinazolin-4-amine], 5.24 µM.

The test system of a further assay is S. cerevisiae. Nature of the assay: Example I: Saccharomyces cerevisiae growth inhibition (OD 600 nm). The following applies: Saccharomyces cerevisiae, read-out: IC50, uM (50% inhibition of fungal growth); 18 hour incubation at 30° C., OD 600 nm, XLfit. It is filed as cell-based.
As for `CCCCCCOc1cccc(CNc2ncnc3ccccc23)c1` [AK, N-[3-(Hexyloxy)benzyl]quinazolin-4-amine], the IC50 stood at 23.5 µM.
Regarding `CCCCCCOCCCCCCCCNc1ccnc2cc(Cl)ccc12` [AW, 7-Chloro-N-[8-(hexyloxy)octyl]quinolin-4-amine], the IC50 is 9.73 µM.
As to `CCCCCCOc1cccc(OCCCNc2ccnc3ccccc23)c1` [AZ, N-{3-[3-(Hexyloxy)phenoxy]propyl}quinolin-4-amine], the IC50 came to 18.6 µM.
The same measure, in the same setting: the result for `Cc1ccc(OCCCCCCCCNc2ccnc3ccccc23)cc1` [BF, N-[8-(p-Tolyloxy)octyl]quinolin-4-amine] reads 20.8 µM.
The same measure, in the same setting: the result for `c1ccc(Oc2cccc(CNc3ncnc4ccccc34)c2)cc1` [BM, N-(3-Phenoxybenzyl)quinazolin-4-amine] reads 30.6 µM.

Still in this assay, the particulars now being: Saccharomyces cerevisiae; 18 hour incubation at 30° C., OD 600 nm, XLfit; read-out: MIC, uM (99% of inhibition of fungal growth).
Take `CCCCCCOCCCCCCCCNc1ccnc2cc(Cl)ccc12` [AW, 7-Chloro-N-[8-(hexyloxy)octyl]quinolin-4-amine]: the MIC turned out to be 10.2 µM (≈ 4 µg/mL).
On the same count and under the same terms, the result for `CCCCCCOc1cccc(OCCCNc2ccnc3ccccc23)c1` [AZ, N-{3-[3-(Hexyloxy)phenoxy]propyl}quinolin-4-amine] reads 24.1 µM (≈ 9.11 µg/mL); that for `Cc1ccc(OCCCCCCCCNc2ccnc3ccccc23)cc1` [BF, N-[8-(p-Tolyloxy)octyl]quinolin-4-amine], 32 µM (≈ 11.6 µg/mL); that for `c1ccc(Oc2cccc(CNc3ncnc4ccccc34)c2)cc1` [BM, N-(3-Phenoxybenzyl)quinazolin-4-amine], 50.5 µM (≈ 16.5 µg/mL).

For the next assay, the system named is Cryptococcus neoformans (serotype D). Nature of the assay: Example K: Cryptococcus neoformans (serotype D) growth inhibition. It is filed as cell-based. The following applies: Cryptococcus deneoformans, read-out: IC50 (concentration for 50% of inhibition); OD of 48 hour reading, 37° C., tested 4 to 60 μM, XLfit.
With `COc1ccc(OCCCCCCCCNc2ncnc3ccccc23)cc1` [AE, N-[8-(4-Methoxyphenoxy)octyl]quinazolin-4-amine], the IC50 was found to be 0.53 µM.
As for `CCCCCCOc1cccc(CNc2ncnc3ccccc23)c1` [AK, N-[3-(Hexyloxy)benzyl]quinazolin-4-amine], the IC50 turned out to be 0.85 µM.
Still for that read-out and setting: the result for `CCCCCCOCCCCCCCCNc1ccnc2cc(Cl)ccc12` [AW, 7-Chloro-N-[8-(hexyloxy)octyl]quinolin-4-amine] reads 0.9 µM; that for `CCCCCCOc1cccc(OCCCNc2ccnc3ccccc23)c1` [AZ, N-{3-[3-(Hexyloxy)phenoxy]propyl}quinolin-4-amine], 2.01 µM; that for `c1ccc(Oc2cccc(CNc3ncnc4ccccc34)c2)cc1` [BM, N-(3-Phenoxybenzyl)quinazolin-4-amine], 0.72 µM.
On to `CCCCCCOCCCCCCCC[n+]1ccc(N)cc1` [BO, 4-Amino-1-[8-(hexyloxy)octyl]pyridinium salts], for which the IC50 came out at 2 µM.
Regarding `CCCCCCCCCCNc1ncnc2ccccc12` [Compound AH, N-(Decyl)quinazolin-4-amine], the IC50 was determined as 0.76 µM.

Still in this assay, the particulars now being: Cryptococcus deneoformans; OD of 48 hour reading, 37° C., tested 4 to 60 μM, XLfit; read-out: MIC (concentration for maximum-99% of inhibition).
On to `COc1ccc(OCCCCCCCCNc2ncnc3ccccc23)cc1` [AE, N-[8-(4-Methoxyphenoxy)octyl]quinazolin-4-amine], for which the MIC amounted to 6.99 µM (≈ 2.65 µg/mL).
The same measure, in the same setting: the result for `CCCCCCOc1cccc(CNc2ncnc3ccccc23)c1` [AK, N-[3-(Hexyloxy)benzyl]quinazolin-4-amine] reads 24.6 µM (≈ 8.26 µg/mL); that for `CCCCCCOCCCCCCCCNc1ccnc2cc(Cl)ccc12` [AW, 7-Chloro-N-[8-(hexyloxy)octyl]quinolin-4-amine], 8.73 µM (≈ 3.41 µg/mL); that for `CCCCCCOc1cccc(OCCCNc2ccnc3ccccc23)c1` [AZ, N-{3-[3-(Hexyloxy)phenoxy]propyl}quinolin-4-amine], 15.8 µM (≈ 5.99 µg/mL).
As to `c1ccc(Oc2cccc(CNc3ncnc4ccccc34)c2)cc1` [BM, N-(3-Phenoxybenzyl)quinazolin-4-amine], the MIC is 22.6 µM (≈ 7.38 µg/mL).
The same measure, in the same setting: the result for `CCCCCCOCCCCCCCC[n+]1ccc(N)cc1` [BO, 4-Amino-1-[8-(hexyloxy)octyl]pyridinium salts] reads 13.4 µM; that for `CCCCCCCCCCNc1ncnc2ccccc12` [Compound AH, N-(Decyl)quinazolin-4-amine], 9.54 µM (≈ 2.72 µg/mL).

The subject of a further assay is PC-3 prostate cancer cells. Nature of the assay: Example T: sensitisation of PC-3 cells to doxorubicin, oxaliplatin, paclitaxel or vincristine, Wst1. It is filed as cell-based, human. The following applies: Homo sapiens; PC-3 cells; compound 0.4 μM alone; 72 hours; Wst1; vehicle = 100; read-out: No Chemo: percent cell survival.
As for `CCCCCCOCCCCCCCCNc1ccnc2cc(Cl)ccc12` [AW, 7-Chloro-N-[8-(hexyloxy)octyl]quinolin-4-amine], the viability at 0.4 µM was found to be 38.2%.
On the same count and under the same terms, the result for `CCCCCCOc1cccc(OCCCNc2ccnc3ccccc23)c1` [AZ, N-{3-[3-(Hexyloxy)phenoxy]propyl}quinolin-4-amine] reads 95.4%; that for `Cc1ccc(OCCCCCCCCNc2ccnc3ccccc23)cc1` [BF, N-[8-(p-Tolyloxy)octyl]quinolin-4-amine], 92.8%; that for `CCCCCCOCCCCCCCC[n+]1ccc(N)cc1` [BO, 4-Amino-1-[8-(hexyloxy)octyl]pyridinium salts], 13.4%.

Staying with this assay, now noted: PC-3 cells; compound 0.4 μM + doxorubicin 3.5 μM; 72 hours; chemotherapy agent alone normalized to 100%.
Take `CCCCCCOCCCCCCCCNc1ccnc2cc(Cl)ccc12` [AW, 7-Chloro-N-[8-(hexyloxy)octyl]quinolin-4-amine]: the “Doxorubicin 3.5 μM: percent cell survival” value was determined as 59.5%.
On to `CCCCCCOc1cccc(OCCCNc2ccnc3ccccc23)c1` [AZ, N-{3-[3-(Hexyloxy)phenoxy]propyl}quinolin-4-amine], for which the “Doxorubicin 3.5 μM: percent cell survival” value worked out at 33.6%.
Same read-out and setting: the result for `Cc1ccc(OCCCCCCCCNc2ccnc3ccccc23)cc1` [BF, N-[8-(p-Tolyloxy)octyl]quinolin-4-amine] reads 40.9%; that for `CCCCCCOCCCCCCCC[n+]1ccc(N)cc1` [BO, 4-Amino-1-[8-(hexyloxy)octyl]pyridinium salts], 82.4%.

The same assay, now with this note: PC-3 cells; compound 0.4 μM + oxaliplatin 100 μM; 72 hours; chemotherapy agent alone normalized to 100%.
Regarding `CCCCCCOCCCCCCCCNc1ccnc2cc(Cl)ccc12` [AW, 7-Chloro-N-[8-(hexyloxy)octyl]quinolin-4-amine], the “Oxaliplatin 100 μM: percent cell survival” value is listed as 70%.
On to `CCCCCCOc1cccc(OCCCNc2ccnc3ccccc23)c1` [AZ, N-{3-[3-(Hexyloxy)phenoxy]propyl}quinolin-4-amine], for which the “Oxaliplatin 100 μM: percent cell survival” value stood at 26.9%.
On to `Cc1ccc(OCCCCCCCCNc2ccnc3ccccc23)cc1` [BF, N-[8-(p-Tolyloxy)octyl]quinolin-4-amine], for which the “Oxaliplatin 100 μM: percent cell survival” value is reported as 37.2%.
For `CCCCCCOCCCCCCCC[n+]1ccc(N)cc1` [BO, 4-Amino-1-[8-(hexyloxy)octyl]pyridinium salts], the “Oxaliplatin 100 μM: percent cell survival” value is 28.4%.

The same assay, now with this note: PC-3 cells; compound 0.4 μM + paclitaxel 50 μM; 72 hours; chemotherapy agent alone normalized to 100%.
`CCCCCCOCCCCCCCCNc1ccnc2cc(Cl)ccc12` [AW, 7-Chloro-N-[8-(hexyloxy)octyl]quinolin-4-amine]: the “Paclitaxel 50 μM: percent cell survival” value is on record as 51.3%.
Still for that read-out and setting: the result for `CCCCCCOc1cccc(OCCCNc2ccnc3ccccc23)c1` [AZ, N-{3-[3-(Hexyloxy)phenoxy]propyl}quinolin-4-amine] reads 54.1%; that for `Cc1ccc(OCCCCCCCCNc2ccnc3ccccc23)cc1` [BF, N-[8-(p-Tolyloxy)octyl]quinolin-4-amine], 57.1%; that for `CCCCCCOCCCCCCCC[n+]1ccc(N)cc1` [BO, 4-Amino-1-[8-(hexyloxy)octyl]pyridinium salts], 28.2%.

Still in this assay, the particulars now being: PC-3 cells; compound 0.4 μM + vincristine 100 nM; 72 hours; chemotherapy agent alone normalized to 100%.
`CCCCCCOCCCCCCCCNc1ccnc2cc(Cl)ccc12` [AW, 7-Chloro-N-[8-(hexyloxy)octyl]quinolin-4-amine]: the “Vincristine 100 nM: percent cell survival” value is listed as 33.6%.
Still for that read-out and setting: the result for `CCCCCCOc1cccc(OCCCNc2ccnc3ccccc23)c1` [AZ, N-{3-[3-(Hexyloxy)phenoxy]propyl}quinolin-4-amine] reads 71.2%; that for `Cc1ccc(OCCCCCCCCNc2ccnc3ccccc23)cc1` [BF, N-[8-(p-Tolyloxy)octyl]quinolin-4-amine], 74.1%; that for `CCCCCCOCCCCCCCC[n+]1ccc(N)cc1` [BO, 4-Amino-1-[8-(hexyloxy)octyl]pyridinium salts], 18.4%.
